The values below come from patent US8691757B2 (Bristol-Myers Squibb Company, priority 2011, dated 2014).

In test [1] the test system is HCV genotype 1a (H77 strain) replicon in HUH-7 cells. Nature of the test: HCV replicon luciferase reporter assay, genotype 1a. The test is classed as cell-based. To be noted: Hepatitis C virus, 72 h, HCV genotype 1a replicon, 3 days incubation, Renilla luciferase. From the text:
(§1) An HCV replicon whole cell system was established as described by Lohmann V, Korner F, Koch J, Herian U, Theilmann L, Bartenschlager R., Science 285(5424):110-3 (1999) and modified to introduce a luciferase reporter, as first described by Krieger et al (Krieger N, Lohmann V, and Bartenschlager R, J. Virol. 75(10):4614-4624 (2001)). CDNA encoding a humanized form of the Renilla luciferase gene and a linker sequence fused directly to the 3′-end of the luciferase gene were introduced into the replicon construct using an Asc1 restriction site located in core, directly upstream of the neomycin marker gene. The adaptive mutation at position 1179 (serine to isoleucine) was also introduced (Blight K J, Kolykhalov, A A, Rice, C M, Science 290(5498):1972-1974). A stable cell line constitutively expressing this HCV replicon construct was generated by first linearizing plasmid DNAs with ScaI. RNA transcripts were synthesized in vitro using the T7 MegaScript transcription kit (Ambion, Austin, Tex.) according to manufacturer's directions. In vitro transcripts of the cDNA were transfected into the human hepatoma cell line, HUH-7. […] Resulting cell lines were characterized for positive and negative strand RNA production and protein production over time.
A stable HCV replicon luciferase reporter cell line representing the genotype 1a H77 strain (Yanagi M, Purcell R H, Emerson S U, et al. Transcripts from a single full-length cDNA clone of hepatitis C virus are infectious when directly transfected into the liver of a chimpanzee. Proc Natl Acad Sci USA 1997; 94(16):8738-8743) was generated as described previously for the genotype 1b (Con1) replicon luciferase cell line. The replicon construct was modified by introducing mutations were introduced into the genes encoding the NS3 helicase domain (proline replaced by leucine at position 1496) and NS5A (serine to isoleucine at position 2204) to improve replication in cell culture.
(§2) HCV replicon luciferase assays were developed to monitor the inhibitory effects of compounds described in the disclosure on HCV genotypes 1a and 1b viral replication. HUH-7 cells, constitutively expressing the HCV replicon, were grown in Dulbecco's Modified Eagle Media (DMEM) (Gibco-BRL) containing 10% Fetal calf serum (FCS) (Sigma) and 1 mg/mL G418 (Gibco-BRL). Compounds were serially diluted 3 folds in DMSO for a twenty-point titration and subsequently transferred to sterile 384-well tissue-culture treated plates (Corning cat #3571). The plates were then seeded with 50 μL of cells at a density of 3.0×10^3 cells/well in DMEM containing 4% FCS (final DMSO concentration at 0.5%). After 3 days incubation at 37° C., cells were analyzed for Renilla Luciferase activity using the EnduRen as substrate (Promega cat #E6485). The EnduRen substrate was diluted in DMEM and then added to the plates to a final concentration of 7.5 μM. The plates were incubated for 2 hrs at 37° C. and then read immediately for 30 seconds with Viewlux Imager (PerkinElmer) using a luminescence program. To assess cytotoxicity of compounds, CC50 values were generated by multiplexing the EnduRen-containing plates with Cell Titer-Blue (Promega, cat #G8082). Cell-Titer Blue (3 μL) was added to each well and incubated for 8 hrs at 37° C. The fluorescence signal from each well was read, with an excitation wavelength at 525/10 nm and an emission wavelength of 598/10 nm, using the Viewlux Imager.
(§3) The EC50 values for compounds were calculated by using a four-parameter logistic equation: y=A+((B−A)/(1+((C/x)^D))), where A and B denotes minimal and maximal % inhibition, respectively, C is the EC50, D is the hill slope and x represents compound concentration.
(In general: Replicon systems follow genome replication, usually without infectious particles.)

Test [2] has as its system HCV genotype 1b (Con1) replicon in HUH-7 cells. Nature of the test: HCV replicon luciferase reporter assay, genotype 1b. To be noted: Hepatitis C virus, 72 h, HCV genotype 1b replicon, 3 days incubation, Renilla luciferase. The test is classed as cell-based.
Text: as §1, with “time. […]” for “time.”
as §2, §3

For `COc1cc2c(OC)cnc(O[C@@H]3C[C@H]4C(=O)N[C@]5(C(=O)NS(=O)(=O)C6CC6)C[C@H]5/C=C\[C@H](C)CCC[C@@H](C)[C@H](NC(=O)OC(C)(C)C(F)(F)F)C(=O)N4C3)c2cc1F` [Compound 33, 1,1,1-trifluoro-2-methylpropan-2-yl (2R,6S,7R,11R,13aS,14aR,16aS,Z)-14a-(cyclopropylsulfonylcarbamoyl)-2-(7-fluoro-4,6-dimethoxyisoquinolin-1-yloxy)-7,11-dimethyl-5,16-dioxo-1,2,3,5,6,7,8,9,10,11,13a,14,14a,15,16,16a-hexadecahydrocyclopropa[e]pyrrolo[1,2-a][1,4]diazacyclopentadecin-6-ylcarbamate], the 50% effective concentration (EC50) in test [1] (range classes) lay within 2.01 to 5 nM; in test [2] (range classes), 1.01 to 2 nM.
`COc1ccc2ncc(O[C@@H]3C[C@H]4C(=O)N[C@]5(C(=O)NS(=O)(=O)C6(C)CC6)C[C@H]5/C=C\[C@H](C)CCC[C@@H](C)[C@H](NC(=O)OC(C)(C)C(F)(F)F)C(=O)N4C3)nc2c1` [Compound 17]: the EC50 in test [1] (range classes) and in test [2] (range classes) was 5.01 to 68 nM in each case.
Take `COc1cnc(O[C@@H]2C[C@H]3C(=O)N[C@]4(C(=O)NS(=O)(=O)C5CC5)C[C@H]4/C=C\[C@H](C)CCC[C@@H](C)[C@H](NC(=O)OC(C)(C)C)C(=O)N3C2)c2cccc(Cl)c12` [Compound 5, tert-butyl (2R,6S,7R,11R,13aS,14aR,16aS,Z)-2-(5-chloro-4-methoxyisoquinolin-1-yloxy)-14a-(cyclopropylsulfonylcarbamoyl)-7,11-dimethyl-5,16-dioxo-1,2,3,5,6,7,8,9,10,11,13a,14,14a,15,16,16a-hexadecahydrocyclopropa[e]pyrrolo[1,2-a][1,4]diazacyclopentadecin-6-ylcarbamate]: the figures for the EC50 in test [1] (numeric values) and in test [2] (numeric values) were 0.41 nM and 1.2 nM, respectively.
Regarding `COc1cnc(O[C@@H]2C[C@H]3C(=O)N[C@]4(C(=O)NS(=O)(=O)C5CC5)C[C@H]4/C=C\[C@H](C)CCC[C@@H](C)[C@H](NC(=O)OC(C)(C)C(F)(F)F)C(=O)N3C2)c2ccccc12` [Compound 3, 1,1,1-trifluoro-2-methylpropan-2-yl (2R,6S,7R,11R,13aS,14aR,16aS,Z)-14a-(cyclopropylsulfonylcarbamoyl)-2-(4-methoxyisoquinolin-1-yloxy)-7,11-dimethyl-5,16-dioxo-1,2,3,5,6,7,8,9,10,11,13a,14,14a,15,16,16a-hexadecahydrocyclopropa[e]pyrrolo[1,2-a][1,4]diazacyclopentadecin-6-ylcarbamate], the EC50 in test [1] (range classes) and in test [2] (range classes) was 0.2 to 1 nM each time.
As to `COc1ccc2nc(O[C@@H]3C[C@H]4C(=O)N[C@]5(C(=O)NS(=O)(=O)C6CC6)C[C@H]5/C=C\[C@H](C)CCC[C@@H](C)[C@H](NC(=O)OC(C)(C)C(F)(F)F)C(=O)N4C3)cnc2c1` [Compound 32, 1,1,1-trifluoro-2-methylpropan-2-yl (2R,6S,7R,11R,13aS,14aR,16aS,Z)-14a-(cyclopropylsulfonylcarbamoyl)-2-(6-methoxyquinoxalin-2-yloxy)-7,11-dimethyl-5,16-dioxo-1,2,3,5,6,7,8,9,10,11,13a,14,14a,15,16,16a-hexadecahydrocyclopropa[e]pyrrolo[1,2-a][1,4]diazacyclopentadecin-6-ylcarbamate], the EC50 in test [1] (range classes) and in test [2] (range classes) was 5.01 to 68 nM in each case.
As to `CCOc1cnc(O[C@@H]2C[C@H]3C(=O)N[C@]4(C(=O)NS(=O)(=O)C5(C)CC5)C[C@H]4/C=C\[C@H](C)CCC[C@@H](C)[C@H](NC(=O)OC(C)(C)C(F)(F)F)C(=O)N3C2)c2ccccc12` [Compound 19, 1,1,1-trifluoro-2-methylpropan-2-yl (2R,6S,7R,11R,13aS,14aR,16aS,Z)-2-(4-ethoxyisoquinolin-1-yloxy)-7,11-dimethyl-14a-(1-methylcyclopropylsulfonylcarbamoyl)-5,16-dioxo-1,2,3,5,6,7,8,9,10,11,13a,14,14a,15,16,16a-hexadecahydrocyclopropa[e]pyrrolo[1,2-a][1,4]diazacyclopentadecin-6-ylcarbamate], the EC50 was in the range of 2.01 to 5 nM in test [1] (range classes) and 1.01 to 2 nM in test [2] (range classes).
The matching figures for `COc1cnc(O[C@@H]2C[C@H]3C(=O)N[C@]4(C(=O)NS(=O)(=O)C5CC5)C[C@H]4/C=C\[C@H](C)CCC[C@@H](C)[C@H](NC(=O)OC(C)(C)C(F)(F)F)C(=O)N3C2)c2cc(F)ccc12` [Compound 24, 1,1,1-trifluoro-2-methylpropan-2-yl (2R,6S,7R,11R,13aS,14aR,16aS,Z)-14a-(cyclopropylsulfonylcarbamoyl)-2-(7-fluoro-4-methoxyisoquinolin-1-yloxy)-7,11-dimethyl-5,16-dioxo-1,2,3,5,6,7,8,9,10,11,13a,14,14a,15,16,16a-hexadecahydrocyclopropa[e]pyrrolo[1,2-a][1,4]diazacyclopentadecin-6-ylcarbamate]: 5.01 to 68 nM and 5.01 to 68 nM.
In the same order, the values of `COc1cnc(O[C@@H]2C[C@H]3C(=O)N[C@]4(C(=O)NS(=O)(=O)C5CC5)C[C@H]4/C=C\[C@H](C)CCC[C@@H](C)[C@H](NC(=O)OC(C)(C)C(F)(F)F)C(=O)N3C2)c2cccc(Cl)c12` [Compound 7, 1,1,1-trifluoro-2-methylpropan-2-yl (2R,6S,7R,11R,13aS,14aR,16aS,Z)-2-(5-chloro-4-methoxyisoquinolin-1-yloxy)-14a-(cyclopropylsulfonylcarbamoyl)-7,11-dimethyl-5,16-dioxo-1,2,3,5,6,7,8,9,10,11,13a,14,14a,15,16,16a-hexadecahydrocyclopropa[e]pyrrolo[1,2-a][1,4]diazacyclopentadecin-6-ylcarbamate] are 1.01 to 2 nM and 0.2 to 1 nM.
Take `COc1ccc2nc(O[C@@H]3C[C@H]4C(=O)N[C@]5(C(=O)NS(=O)(=O)C6CC6)C[C@H]5/C=C\[C@H](C)CCC[C@@H](C)[C@H](NC(=O)OC(C)(C)C)C(=O)N4C3)cnc2c1` [Compound 26, tert-butyl (2R,6S,7R,11R,13aS,14aR,16aS,Z)-14a-(cyclopropylsulfonylcarbamoyl)-2-(6-methoxyquinoxalin-2-yloxy)-7,11-dimethyl-5,16-dioxo-1,2,3,5,6,7,8,9,10,11,13a,14,14a,15,16,16a-hexadecahydrocyclopropa[e]pyrrolo[1,2-a][1,4]diazacyclopentadecin-6-ylcarbamate]: the EC50 in test [1] (numeric values) came to 215 nM; in test [2] (numeric values), 86.5 nM.

The EC50 is the concentration that produces a half-maximal response. A higher EC50 goes with a less potent agent.
